pKd: −log10 of the molar value. Entries after “also recorded” stand apart in the source; their conditions may differ. No end group written: not given here.
Assays:
their target = conditions: read-out: binding to their target; cited from earlier work
[1] = system: methicillin-resistant Staphylococcus aureus (MRSA), vancomycin-resistant Enterococcus faecium (VRE), Streptococcus pneumoniae; assay: Dilution series, dose-dependent killing of MDR clinical isolates; format: cell-based; conditions: for dose-dependent antimicrobial activity against at least one strain: 2-fold serial dilution of SPE-purified peptide from liter scale fermentation
[2] = system: indicator strains from niches of the human microbiome (Table 11); assay: 96-well antimicrobial profiling, residual growth (OD600); format: cell-based; conditions: for antimicrobial activity (fingerprint, residual growth): set amount of SPE purified RiPP, large panel of indicator strains; for activity against strains of the alimentary tract: Bifidobacterium adolescenits, Bifidobacterium longum, Sellimonas intestinalis, Streptococcus dysgalactiae
[3] = system: human microbiome-associated strains (Staphylococcus aureus, Streptococcus infantarius, Streptococcus dysgalactiae, Pediococcus acidilactici …); format: cell-based; conditions: microtiter-purified RiPPs; initial test set of indicator strains
Lactobacillus crispatus = assay: Antimicrobial activity against Lactobacillus crispatus; format: cell-based; conditions: FIG. 57D
Streptococcus pneumoniae = assay: Dilution series against Streptococcus pneumoniae; format: cell-based; conditions: serial dilution of SPE-purified peptide
[4] = molecular target: SARS-CoV-2 Spike RBD (residues 328-533) as bait (Severe acute respiratory syndrome coronavirus 2, UniProt P0DTC2)

Compound: CN[C@H](CC(C)C)C(=O)N[C@H]1C(=O)N[C@@H](CC(N)=O)C(=O)N[C@H]2C(=O)N[C@H]3C(=O)N[C@H](C(=O)N[C@H](C(=O)O)c4cc(O)cc(O)c4-c4cc3ccc4O)[C@H](O)c3ccc(c(Cl)c3)Oc3cc2cc(c3O[C@@H]2O[C@H](CO)[C@@H](O)[C@H](O)[C@H]2O[C@H]2C[C@](C)(N)[C@H](O)[C@H](C)O2)Oc2ccc(cc2Cl)[C@H]1O [vancomycin]
- pKd (their target): ~6.00

Compound: GGDGVMHTLTHECHMNTWQFLLTCC [AMK-417]
- dose-dependent antimicrobial activity against at least one strain [1]: Dose-dependent antimicrobial activity
- antimicrobial activity (fingerprint, residual growth) [2]: active

Compound: GGGWYTAFKLTLAGRCGLCFTCSYECTSNNVHC [AMK-286]
- activity against strains of the alimentary tract [2]: pronounced activity
- antimicrobial activity (fingerprint, residual growth) [2]: active

Compound: GGKNGVFKTISHECHLNTWAFLATCCS [AMK-691]
- dose-dependent antimicrobial activity against at least one strain [1]: Dose-dependent antimicrobial activity
- zones of inhibition [3]: varying zones of inhibition
- antimicrobial activity (fingerprint, residual growth) [2]: active
- activity against Lactobacillus crispatus (Lactobacillus crispatus): demonstrated activity

Compound: GGWFTAIQLTLAGRCGNWFTGSFECTSNNVKCG [AMK-287]
- activity against Streptococcus pneumoniae (Streptococcus pneumoniae): pronounced activity
- dose-dependent antimicrobial activity against at least one strain [1]: Dose-dependent antimicrobial activity
- zones of inhibition [3]: varying zones of inhibition
- activity against other Streptococci (strains with significant activity, spectrum) ([2]; 5 Streptococcal strains of the panel): narrow spectrum of activity
- activity against strains of the alimentary tract [2]: pronounced activity
- antimicrobial activity (fingerprint, residual growth) [2]: active

Compound: GHVELMNADKVKCKSTSTTKSCSSTSTTSVD [AMK-720]
- antimicrobial activity (fingerprint, residual growth) [2]: exceptionally broad antimicrobial activity

Compound: GLIYGKYRDVLSGARLVTPPEVALRLVPR [AMK-917]
- antimicrobial activity (fingerprint, residual growth) [2]: active

Compound: GSRWWQGVLPTVSHECRMNSFQHIFTCC [AMK-687]
- antimicrobial activity against MDR clinical isolates (potency, spectrum, in words) [1]: particularly potent and broad-spectrum antimicrobial activity against all four isolates
- dose-dependent antimicrobial activity against at least one strain [1]: Dose-dependent antimicrobial activity
- zones of inhibition [3]: varying zones of inhibition
- antimicrobial activity (fingerprint, residual growth) [2]: active; also recorded: remarkable antimicrobial activity
- activity against Lactobacillus crispatus (Lactobacillus crispatus): even more pronounced activity

Compound: GWLWGSYRDVYGVWHGPRTNFNGAGGSSEWRLVPR [AMK-1009]
- antimicrobial activity (fingerprint, residual growth) [2]: active

Compound: GWQTAFRLTMQGRCGGVFTLSYECATPHVSCG [AMK-916]
- activity against strains of the alimentary tract [2]: pronounced activity
- antimicrobial activity (fingerprint, residual growth) [2]: active

Compound: GWYWGNRRDIYGALRYANKRLVPR [AMK-1010]
- antimicrobial activity (fingerprint, residual growth) [2]: active

Compound: VCKYGEWCEIVEI [VCKYGEWCEIVEI (SEQ ID NO: 24)]
- specificity for the Spike RBD as bait over Mdm2* [4]: 14 fold
- transcriptional output of circuit [4]: strong transcriptional output

Compound: microcin J25 (GGAGHVPEYFVGIGTPISFYG; ends and bridges not checked; UniProt Q9X2V7 38-58, looked up)
- pKd (their target): 5.70

From patent publication US20230227508A1, “SPLIT INTEIN-BASED SELECTION FOR PEPTIDE BINDERS” (priority 2020, published 2023)
